Test results: patent US5364864A, “1,4-disubstituted piperidines, their preparation and their application in therapy” (priority 1991, dated 1994)

Target: acetylcholinesterase (Homo sapiens, UniProt P22303)
Assay: Inhibition of acetylcholinesterase activity (method of Ellman et al.)
Assay type: biochemical

Sequence of acetylcholinesterase (P22303 32-614): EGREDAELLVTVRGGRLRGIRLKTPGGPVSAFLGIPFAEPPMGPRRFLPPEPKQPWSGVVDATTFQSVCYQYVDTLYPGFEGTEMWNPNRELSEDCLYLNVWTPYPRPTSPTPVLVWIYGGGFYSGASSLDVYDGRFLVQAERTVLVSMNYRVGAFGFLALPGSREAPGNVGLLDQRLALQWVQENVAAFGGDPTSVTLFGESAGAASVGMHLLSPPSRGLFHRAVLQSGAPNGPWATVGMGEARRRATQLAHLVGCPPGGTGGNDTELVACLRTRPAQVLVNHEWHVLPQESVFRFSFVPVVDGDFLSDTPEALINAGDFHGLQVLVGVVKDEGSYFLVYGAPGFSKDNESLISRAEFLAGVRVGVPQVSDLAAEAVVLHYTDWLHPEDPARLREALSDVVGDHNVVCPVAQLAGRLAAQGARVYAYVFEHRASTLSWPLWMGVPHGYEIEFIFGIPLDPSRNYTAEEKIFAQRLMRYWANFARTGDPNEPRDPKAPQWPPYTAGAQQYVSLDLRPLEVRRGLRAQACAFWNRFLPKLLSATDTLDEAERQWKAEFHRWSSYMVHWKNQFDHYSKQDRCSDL

## S=C(NCCC1CCN(Cc2ccccc2)CC1)Nc1ccccc1 [Compound 1, 1-Phenyl-3-[2-(1-benzyl-4-piperidyl)ethyl]thiourea]
  IC50: 320 nM
